Data reported in US20240174618A1, “SUBSTITUTED (2-HETEROARYLOXYPHENYL)SULFONATES, SALTS THEREOF AND THEIR USE AS HERBICIDAL AGENTS” (Bayer Aktiengesellschaft, priority 2021, published 2024).

Legend:
Type in all cases: in vivo
[1] = test system: Alopecurus myosuroides (ALOMY); assay: A. Herbicidal pre-emergence efficacy, ALOMY; conditions: scored visually after about 3 weeks vs untreated controls
Procedure, shortened: (§1)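 Applied before emergence onto covering soil at rates of 1280 g/ha or less, using 600 L/ha spray water with 0.5% additive. Scoring: visual % efficacy after ~3 weeks, greenhouse.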

Kochia scoparia (KCHSC) = assay: B. Herbicidal post-emergence efficacy, KCHSC; conditions: for Post-emergence efficacy against KCHSC in %: rated visually after about 3 weeks; for Post-emergence efficacy against KCHSC: 1280 g/ha
Procedure, shortened: (§2)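 Post-emergence greenhouse test: one-leaf-stage plants, compound (WP/EC, +0.5% additive, 600 L/ha water, ≤1280 g/ha) applied to green parts; % efficacy scored visually vs untreated after ~3 wk; 100% = plants died.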

[2] = test system: Echinochloa crus-galli (ECHCG); assay: C. Herbicidal pre-emergence efficacy, ECHCG; conditions: scored after about 3 weeks
Procedure, shortened: (§3)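 Pre-emergence test: formulated compounds sprayed as aqueous suspension or emulsion with 0.5% additive at 600 l/ha onto soil covering sown seeds, at rates corresponding to 320 g/ha or less. After about 3 weeks in greenhouse, efficacy scored visually as percent versus untreated controls (100% = plants dead).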

Veronica persica (VERPE) = assay: A. Herbicidal pre-emergence efficacy, VERPE; conditions: for Pre-emergence efficacy against VERPE: dosage 80 g/ha
Procedure, shortened: as §1

[3] = test system: Echinochloa crus-galli (ECHCG); assay: B. Herbicidal post-emergence efficacy, ECHCG; conditions: rated visually after about 3 weeks
Procedure, shortened: as §2

[4] = test system: Pharbitis purpurea (PHBPU); assay: E. Herbicidal post-emergence efficacy, PHBPU
Procedure, shortened: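 Compounds applied at 320 g/ha or less as a foliar spray (600 l/ha, 0.5% additive) to one-leaf-stage greenhouse plants grown in sandy loam. Damage is visually scored in percent relative to untreated plants after about 3 weeks.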

[5] = test system: Amaranthus retroflexus (AMARE); assay: C. Herbicidal pre-emergence efficacy, AMARE; conditions: scored after about 3 weeks
Procedure, shortened: as §3

[6] = test system: Abutilon theophrasti (ABUTH); assay: A. Herbicidal pre-emergence efficacy, ABUTH; conditions: scored visually after about 3 weeks vs untreated controls
Procedure, shortened: as §1

SMILES | Pre-emergence efficacy against ALOMY ([1]; 1280 g/ha) | Post-emergence efficacy against KCHSC in % (Kochia scoparia (KCHSC); 80 g/ha) | Post-emergence efficacy against KCHSC in % (Kochia scoparia (KCHSC); 320 g/ha) | Post-emergence efficacy against KCHSC (Kochia scoparia (KCHSC)) | Pre-emergence efficacy against ECHCG ([2]; 320 g/ha) | Pre-emergence efficacy against VERPE in % (Veronica persica (VERPE); 320 g/ha) | Pre-emergence efficacy against VERPE in % (Veronica persica (VERPE); 1280 g/ha) | Post-emergence efficacy against ECHCG in % ([3]; 320 g/ha) | Post-emergence efficacy against ECHCG in % ([3]; 1280 g/ha) | Post-emergence efficacy against PHBPU in % ([4]; application rate 80 g/ha) | Post-emergence efficacy against PHBPU in % ([4]; application rate 320 g/ha) | Pre-emergence efficacy against AMARE ([5]; 80 g/ha) | Pre-emergence efficacy against AMARE ([5]; 320 g/ha) | Pre-emergence efficacy against ABUTH ([6]; 320 g/ha) | Pre-emergence efficacy against ABUTH ([6]; 1280 g/ha) | Pre-emergence efficacy against ECHCG ([2]; 80 g/ha) | Pre-emergence efficacy against VERPE (Veronica persica (VERPE)) | Post-emergence efficacy against ECHCG in % ([3]; 80 g/ha) | Pre-emergence efficacy against ABUTH ([6]; 80 g/ha) | Pre-emergence efficacy against ALOMY ([1]; 320 g/ha)
O=S(=O)(CCC(F)(F)F)Oc1c(Br)cccc1Oc1ncc(F)cn1 [Example I-43] | 90% | 90% | 90% | 100% | 90% | 100% | 100% | 90% | 90% | 80% | 90% | 100% | 100% | 100% | 100% |  |  |  |  | 
O=S(=O)(CC1CC(F)(F)C1)Oc1c(F)cccc1Oc1ncc(Cl)cn1 [Example I-53] | 100% | 90% | 90% | 90% | 100% | 100% | 100% | 90% | 90% | 100% | 100% | 100% | 100% | 100% | 100% | 100% | 100% | 90% | 100% | 
O=S(=O)(CCC(F)(F)F)Oc1ccccc1Oc1ncc(Cl)cn1 [Example I-8] | 90% | 90% | 90% | 90% | 100% | 100% | 100% | 90% | 100% |  | 100% | 100% | 100% | 90% | 100% | 100% | 100% |  | 90% | 
Cc1cccc(Oc2ncc(F)cn2)c1OS(=O)(=O)CCCC(F)(F)F [Example I-46] | 100% |  |  | 100% | 100% | 90% | 100% | 90% | 100% | 80% | 90% | 80% | 100% | 100% | 100% | 90% | 90% | 90% | 90% | 
O=S(=O)(CC1CC1)Oc1ccccc1Oc1ncc(Cl)cn1 [Example I-23] | 90% | 100% | 100% | 100% | 100% | 100% | 100% | 90% | 90% |  | 100% | 100% | 100% | 90% | 100% | 100% | 90% |  | 90% | 
CCCS(=O)(=O)Oc1ccccc1Oc1ncc(Cl)cn1 [Example I-3] | 100% | 90% | 90% | 90% | 100% | 100% | 100% |  | 90% |  | 90% | 100% | 100% | 100% | 100% | 90% | 100% |  | 100% | 90%
O=S(=O)(CCC(F)(F)F)Oc1c(F)cccc1Oc1ncc(F)cn1 [Example I-47] | 100% | 100% | 100% | 100% | 100% | 100% | 100% | 100% | 100% | 90% | 100% | 100% | 100% | 100% | 100% | 100% | 90% | 90% | 100% | 100%
Cc1cccc(Oc2ncc(Cl)cn2)c1OS(=O)(=O)CC1CC(F)(F)C1 [Example I-74] | 90% | 90% | 100% | 100% | 100% | 100% | 100% | 100% | 100% |  | 90% | 90% | 100% |  | 90% |  | 90% |  |  | 
O=S(=O)(CCCC(F)(F)F)Oc1c(F)cccc1Oc1ncc(Cl)cn1 [Example I-49] | 90% | 90% | 90% | 100% | 100% | 100% | 100% | 90% | 90% | 100% | 100% | 100% | 100% | 100% | 100% | 100% | 90% | 90% | 100% | 
O=S(=O)(CCCCl)Oc1c(F)cccc1Oc1ncc(Cl)cn1 [Example I-14] | 100% | 100% | 100% | 100% | 100% | 100% | 100% | 100% | 100% | 100% | 100% | 100% | 100% | 100% | 100% | 100% | 100% |  | 100% | 90%
O=S(=O)(CCCC(F)(F)F)Oc1c(F)cccc1Oc1ncc(F)cn1 [Example I-42] | 100% | 90% | 100% | 100% | 100% | 100% | 100% | 100% | 100% | 100% | 100% | 100% | 100% | 100% | 100% | 100% | 100% | 100% | 100% | 100%
O=S(=O)(CCC(F)(F)F)Oc1c(F)cccc1Oc1ncc(Cl)cn1 [Example I-48] | 90% | 90% | 90% | 90% | 100% | 100% | 100% | 90% | 90% | 100% | 100% | 100% | 100% | 100% | 100% | 100% | 90% |  | 90% | 90%
